{
  "source": "patent US20230054039A1",
  "about": "“METHOD OF TREATING HER2-POSITIVE BREAST CANCER” (University of Cincinnati, priority 2021, published 2023)",
  "key": {"[1]": {"test_system": "FIP200 and ATG13 KO HeLa cells", "test": "Immunoblot of HER2 in FIP200 KO and ATG13 KO HeLa cells treated with Dynasore (FIG. 13C)", "assay_type": "cell-based", "details": "20 μM Dynasore for 24 hours", "protocol": "FIG. 13C. Immuno-blots showing levels of HER2 and GAPDH in WT, FIP200 KO and ATG13 KO HeLa cells with or without treatment of 20 μM Dynasore for 24 hours, as indicated.\n(§1) Western blot: Cells were cultured in 3.5 cm diameter plates (80-90% confluence), washed by PBS buffer, and lysed for 15 min on ice using a RIPA buffer (#C2978, Sigma) containing an anti-protease mix (#PI78415, Thermo Scientific). Protein concentration was measured by BCA assay (#23225, Thermo Scientific). Equal amounts of proteins were subjected to SDS-PAGE and immunoblotting as described previously (Wei et al., 2011).\nTo test the above possibility directly, endocytosis of HER2 in HeLa cells with or without autophagy blockade was examined. […] In addition to endocytosis from the plasma membrane, proteins from the Golgi could be transported through endosomes to the lysosome or other compartments. […] Co-expression of mTurquoise2-beta-1,4-galactosyltransferase 1 (which constitutively expresses in the Golgi) in these cells further supported accumulation of HER2 in the Golgi of FIP200 and ATG13 KO HeLa cells (FIG. 4E)."}, "[2]": {"test_system": "FIP200 and ATG13 KO HeLa cells", "test": "Immunoblot of HER2 in FIP200 KO and ATG13 KO HeLa cells treated with MG132 (FIG. 3D)", "assay_type": "cell-based", "details": "MG132 10 μM for 6 hours", "protocol": "FIG. 3D. Immunoblots showing levels of HER2, ubiquitin and GAPDH in WT, FIP200 KO and Atg13 KO HeLa cells treated with DMSO and MG132 (10 μM) for 6 hours.\nCRISPR/Cas9-mediated knockout of FIP200 or ATG13 in HeLa and MCF-7 cells and knockdown of Atg5 in HER2 tumor cells: The pX458 plasmid, pSpCas9(BB)-2A-GFP (PX458) was a gift from Feng Zhang, Addgene plasmid # 48138 was used as the cloning backbone for expressing sgFIP200 and sgATG13. The sgRNA sequences of FIP200 and ATG13 are as follows:\nas §1, with “Equal amounts of proteins were subjected to SDS-PAGE and immunoblotting as described previously (Wei et al., 2011).” left out\n(§2) To further investigate regulation of HER2 by autophagy, mRNA levels of HER2 in mammary tumor and HeLa cells with or without autophagy inhibition were examined. […] Next, HER2 protein stability was analyzed and a decreased half-life of HER2 protein in Fip200−/− tumor cells (˜3 hrs) relative to Fip200+/+tumor cells (˜5 hrs) (FIGS. 3A and 3B) was observed. MG132 was used to inhibit proteasome-mediated protein degradation and its effect on HER2 protein levels in autophagy deficient HER2 tumor and HeLa cells was determined."}, "Fip200−/− tumor cells": {"test_system": "Fip200−/− tumor cells", "test": "Immunoblot of HER2 in Fip200-/- tumor cells treated with MG132 (FIG. 3C)", "assay_type": "cell-based, mouse", "details": "MG132 10 μM for 6 hours", "protocol": "FIG. 3C. Immunoblots showing levels of HER2, ubiquitin and GAPDH in Fip200+/+ and Fip200−/− cells treated with DMSO and MG132 (10 μM) for 6 hours.\nCell lines and culture: Primary HER2 tumor cells from FIP200f/f; MMTV-Neu mice (N148 and N418 cells) were isolated and cultured in DMEM/F12 supplemented with 10% FBS, 10 ng/mL EGF, […], and 50 units/mL penicillin-streptomycin. HER2 tumor cells were then infected with recombinant retroviruses encoding CreERT2 and deletion of Fip200 was induced by culturing with 100 nmol/L 4-hydroxytamoxifen (4-OHT). HeLa and MCF-7 cells were obtained from ATCC and maintained in DMEM supplemented with 10% FBS. FIP200 KO and control WT MEF cells have been described previously.\nas §1, with “Equal amounts of proteins were subjected to SDS-PAGE and immunoblotting as described previously (Wei et al., 2011).” left out\nas §2, with “MG132 was used to inhibit proteasome-mediated protein degradation and its effect on HER2 protein levels in autophagy deficient HER2 tumor and HeLa cells was determined.” left out"}, "HeLa cells": {"test_system": "HeLa cells", "test": "Immunoblot of HER2 levels in HeLa cells treated with autophagy inhibitors (FIG. 2I)", "assay_type": "cell-based", "details": "48 hrs, chloroquine 50 μM, bafilomycin 200 nM, 3-MA 5 mM, spautin-1 10 μM", "protocol": "FIG. 2I. Immuno-blots showing levels of HER2 and GAPDH in HeLa cells treated by HBSS starvation, chloroquine (50 μM), bafilomycin (200 nM), 3-methyladenine (3-MA) (5 mM) and spautin-1 (10 μM) for 48 hrs.\nas §1\nTo further evaluate the role of autophagy in the regulation of HER2 levels, shRNA was used to knockdown expression of another essential autophagy gene, Atg5, in the two lines of HER2 tumor cells (FIGS. 2F and 2G). […] Further, decreased HER2 levels upon FIP200 deletion was due to autophagy blockade, rather than the loss of other activities of FIP200, in HER2-driven mammary tumor cells, which was consistent with the similar phenotypes of cKO and cKI mice."}},
  "note": "Peptide text beside a SMILES is read from it. * marks the point of attachment. Cbz = O=C(OCc1ccccc1)*",
  "data": [
    {"compound": "O=C(N/N=C/c1ccc(O)c(O)c1)c1cc2ccccc2cc1O", "note": "[Dynasore]", "values": [
      {"measurement": "rescue of decreased level of HER2", "setting": "[1]", "result": "did not rescue the decreased level of HER2"}
    ]},
    {"compound": "CC(C)C[C@@H](C=O)NC(=O)[C@H](CC(C)C)NC(=O)[C@H](CC(C)C)NC(=O)OCc1ccccc1", "note": "[MG132] (Cbz-Leu-Leu-Leu-aldehyde)", "values": [
      {"measurement": "reversal of reduced levels of HER2 protein", "setting": "[2]", "result": "did not significantly reverse the reduced levels of HER2 protein"},
      {"measurement": "reversal of reduced levels of HER2 protein", "setting": "Fip200−/− tumor cells", "result": "did not significantly reverse the reduced levels of HER2 protein"}
    ]},
    {"compound": "CO/C1=C\\C(C)=C\\[C@@H](C)[C@@H](O)[C@@H](C)C/C(C)=C/C=C/[C@H](OC)[C@@H]([C@@H](C)[C@@H](O)[C@H](C)[C@@]2(O)C[C@@H](O)[C@H](C)[C@@H](C(C)C)O2)OC1=O", "note": "[bafilomycin Al, Bafilomycin A1]", "values": [
      {"measurement": "levels of HER2", "setting": "HeLa cells", "result": "reduced HER2 levels"}
    ]},
    {"compound": "CCN(CC)CCCC(C)Nc1ccnc2cc(Cl)ccc12", "note": "(centres unmarked) [chloroquine]", "values": [
      {"measurement": "levels of HER2", "setting": "HeLa cells", "result": "reduced HER2 levels"}
    ]}
  ]
}
